Measurements published in patent US7163672B2, “Pharmaceutical aerosol formulation” (AstraZeneca AB, priority 2000, dated 2007).

Assay: Surface energy by inverse gas chromatography (IGC)
Format: physicochemical
Details: 35° C., powder
Protocol: Surface energy of the drug and the drug surfactant particles was measured by inverse gas chromatography. A silanised U-shaped column (3 mm internal diameter, 30 cm length) was packed with approximately 400 mg of the test powder and dried under nitrogen for 24 hours at 50° C. The powder bed was then allowed to settle for 24 hours at 35° C. (temperature used during the experiments) under nitrogen. The test probes used were: hexane, heptane, octane, chloroform, CCl4, benzene, acetone, tetrahydrofuran, ethyl acetate and diethyl ether. One ml of air containing a minute concentration of each gaseous probe was injected into the column and the retention time measured.

| γs^D (n = 3) [mJ/m²] | Molecule |
| --- | --- |
| 52.3 | CCC(=O)OCC(=O)[C@@]1(OC(=O)CC)[C@@H](C)C[C@H]2[C@@H]3CCC4=CC(=O)C=C[C@]4(C)[C@@]3(Cl)[C@@H](O)C[C@@]21C [BDP, Beclomethasone dipropionate] |
| 43.3 | Salbutamol sulphate |
